Results on 3 substances are retold here after US20020147326A1, “Hexameric fusion proteins and uses therefor” (SmithKline Beecham Corporation, priority 1996, published 2002).

Assay [1] has as its system murine T-cell hybridoma cell lines expressing human CD28 (PCD28.1.s2.1, DCL27CD28wt.s2). The assay can be described thus: IL-2 production by CD28 T-cell hybridomas (CTLL-2 bioassay). The assay is classed as cell-based. Particulars: for IL-2 response: cross-linked with GAH antibody, no CD3 antibody; for level of IL-2 response at near saturation: soluble protein 1 ug/ml (FIG. 20C). An excerpt:
The CD80- and CD86-Igαtp proteins were compared to the corresponding CD80 and CD86-Ig proteins to determine their ability to stimulate cells expressing human CD28 using two murine T-cell hybridoma cell lines expressing human CD28, PCD28.1.s2.1 and DCL27CD28wt.s2. The PCD28.1.s2.1 cell line was described in Example 1, part 3. The DCL27CD28wt.s2 cell line was created by transfection of the DC27 cell line [F. Pages et al., Nature, 369:327-329 (1994); F. Pages et al., J. Biol. Chem., 271(16):9403-9409 (1996)] with the same CD28 expression vector used for the PCD28.1.s2.1 cells [D. Couez et al., Molecular Immunology, 31:47-57 (1994)]. These cell lines were examined for their ability to produce IL-2 in response to activation with CD80- and CD86-Ig in comparison with the corresponding Igαtp fusion proteins. 96-well plates were coated with or without a CD3 antibody together with the CD80 and CD86 fusion proteins. This was accomplished by first incubating the plates with a previously determined suboptimal concentration of hamster […] CD3 antibody (MAb 145-2C11, Boerhinger-Mannheim Biochemicals) for two hours at room temperature (RT) or with just buffer alone, washing the plates with PBS, adding goat anti-human Ig heavy chain (GAH-IgHc, Sigma Chemical Co.) for an additional two hours at RT, washing again and coating with different concentrations of the CD80 or CD86 fusion protein for 16-18 hours at 4° C., washing again, and finally blocking for 30 min. with 0.2% BSA-PBS. T cells (1×10^5/well) were added in 150 μl medium into duplicate wells. For comparison, the soluble fusion proteins and the 248.23.2 CD28 MAb (IgM) [A. Morretta, University of Genova, Italy] were added to non-coated wells. T cells were incubated in the wells for 24 hours at 37° C., and supernatants were collected and evaluated for IL-2 levels in a standard CTLL-2 bioassay [S. M. Gillis et al., J. Immunol., 120:2027 (1978)]. Briefly, 1×10^4 IL-2 dependent CTLL-2 cells (ATCC)/well in 75 μl medium were added to an equal volume of test supernatant and incubated for 24 hours at 37° C. The cells were pulsed with 10 μl of 5 mg/ml MTT (Sigma Chemical Co.) for 4 hours, and lysed with […] 10% SDS/0.01N HCl solution for 14-16 hours. OD570 readings were converted into ng/ml of IL-2 based on a standard curve generated by treating cells with known concentrations of IL-2.
(§1) IL-2 promoter activity and IL-2 levels were measured similarly to that described in parts A and B above, except that proliferation of the reader CTLL-2 cells was measured by ^3H-thymidine incorporation.

The subject of assay [2] is PCD28.1.S2.1 cells (human CD28, lacZ fused to the IL-2 promoter). As to the kind of experiment: FDG assay for IL-2 promoter activity (lacZ reporter). The assay is classed as cell-based, murine. The following applies: added directly to PC28.1.s2.1 cells in solution (FIG. 20A). Here is the method: A second assay for agonist activity measured induction of IL-2 promoter activity, rather than production of IL-2 protein. The PCD28.1.S2.1 cells described above also contain lacZ fused to the IL-2 promoter. Thus, the PCD28.1.S2.1 cell line provides a convenient system for measuring IL-2 promoter activity upon CD28-mediated T cell simulation. T cells were activated as described above for the CTLL-2 assay, spun down, resuspended in 50 μl of media+50 μl of PBS, lysed with 10 μl of 20% Triton X-100, and supplemented with 25 μl of 10 mM FDG (Molecular Probes), a fluorogenic substrate for b-galactosidase. Hydrolysis of FDG first yields fluorescein monogalactoside (FMG) and then the highly fluorescent product fluorescein. Cell lysates were incubated with FDG for 60 min., and the levels of fluorescence were measured by Fluoroscan (MTX Lab Systems, Inc).
as §1

Assay [3] deals with T1, CD28-Ig (Homo sapiens, UniProt P10747). The assay can be described thus: Isothermal titration calorimetry, binding to CD28-Ig in solution. More on the design: native leader and extracellular domain peptide of CD28 and CD80 were grafted onto a human IgG1 heavy chain Fc region; human IgG1 Fc (hinge/CH2/CH3); made in house; host or cells: CHO cells. The source says:
The solution binding properties of the hexameric and standard Ig fusion proteins of CD80 and CD86 were compared using isothermal titration calorimetry, essentially as described previously for other proteins [K. Johanson et. al., J. Biol. Chem, 270: 9459-9471 (1995), and references therein].
This lower affinity for CD28 than for CTLA4 is in agreement with other reports [P. S. Linsley et. al., Immunity 1: 793-801 (1994)].

In assay [4] the target is T1, CD28-Ig. The assay can be described thus: Surface plasmon resonance (BIAcore) on immobilized CD28-Ig. More on the design: native leader and extracellular domain peptide of CD28 and CD80 were grafted onto a human IgG1 heavy chain Fc region; human IgG1 Fc (hinge/CH2/CH3); made in house; host or cells: CHO cells. Particulars: for dissociation from CD28-Ig coated surface: BIAcore, 10 ul/min. The assay is classed as binding. Here is the method: Covalent attachment was achieved by firstly activating the surface with a 1:1 mixture of 0.1 M solution of N-hydroxysuccinamide and 0.1 M 1-ethyl-3-(3-dimethylaminopropyl)carbodiimide. A solution of CD28-Ig 50 ug/ml in 0.01 M sodium acetate pH 4.7 was then passed over the surface. Unreacted N-hydroxysuccinamide esters were then deactivated with 1 M ethanolamine pH 8.5. The surface was equilibrated with running buffer composed of 20 mM HEPES 150 mM NaCl, pH 7.2, 3 mM EDTA and 0.005% Tween 20.
For comparison of CD80-Igαtp and CD86-Igαtp binding with immobilized CD28-Ig, solutions of CD80-Igαtp and CD86-Igαtp (5 ug/ml) were prepared in running buffer described above. Sample solutions were injected (60 ul) at 10 ul/min. Between samples, the surface was regenerated with a 30 ul injection of Gentle elution buffer (Pierce Chemicals, Rockville, Ill.).
On the technique in general: SPR reads the build-up and loss of mass on a sensor chip optically.

Where [5] appears, read: added directly to PC28.1.s2.1 cells in solution, CTLL-2 3H-thymidine incorporation (FIG. 20B).
Where [6] appears, read: soluble protein, absence of CD3 crosslinking.

As to “CD80-Ig: CD80 leader and extracellular domain grafted onto human IgG1 heavy chain Fc region; monomeric Ig fusion (Ig homodimer) [reference compound]”, the IL-2 production result is listed as “no stimulation” in assay [1] (setting [5]) and “no activity” in assay [1] (setting [6]). Moreover, the IL-2 response entry in assay [1] is recorded as “did not give a response”. In assay [2], the IL-2 promoter activity entry is “no stimulation”. In addition, the “interaction with CD28-Ig in solution by calorimetry” value (“interaction with CD28-Ig” below) with CD28-Ig [3] is reported as “not detected”. For the same substance, the “dissociation from CD28-Ig coated surface” value in the assay with CD28-Ig [4] is given as “dissociates very rapidly”.
“CD80-Igαtp: CD80 leader and extracellular domain linked to human IgG1 hinge/CH2/CH3 and terminating in human IgA1 tailpiece (αtp)”: the IL-2 production entry in assay [1] (setting [5]) was “dose dependent stimulation”; in assay [1] (setting [6]) it was “induced IL-2 production”. Further, the IL-2 response entry in assay [1] is “increased the IL-2 response”. Besides, the “level of IL-2 response at near saturation” value in assay [1] is “comparable to that observed for stimulation through cross-linking of CD3 with immobilized CD3 antibody”. For the same substance, the IL-2 promoter activity entry in assay [2] is “dose dependent stimulation”. The “interaction with CD28-Ig” value with CD28-Ig [3] is reported as “did not show detectable binding”. In addition, the “dissociation from CD28-Ig coated surface” value with CD28-Ig [4] is on record as “about three orders of magnitude slower”.
Turning to “CD86-Igαtp: CD86 leader and extracellular domain linked to human IgG1 Fc and terminating in human IgA1 tailpiece (αtp)”, in assay [1] (setting [5]), the IL-2 production result is “dose dependent stimulation”. In addition, in assay [1], the IL-2 response entry was “increased the IL-2 response” and the “level of IL-2 response at near saturation” value was “comparable to that observed for stimulation through cross-linking of CD3 with immobilized CD3 antibody”. Moreover, the IL-2 production result in assay [1] (setting [6]) is on record as “induced IL-2 production”. In assay [2], the IL-2 promoter activity entry is given as “dose dependent stimulation”. The “interaction with CD28-Ig” value with CD28-Ig [3] is reported as “did not show detectable binding”. In addition, the “off-rate compared with CD80-Igαtp” value with CD28-Ig [4] (5 ug/ml) is on record as “higher than that for the CD80 construct”. Also, the “dissociation from CD28-Ig coated surface” value with CD28-Ig [4] was “dissociates slowly”.
